The results in this text go back to US20200010482A1, “INHIBITORS OF BETA SECRETASE” (Janssen Pharmaceutica NV, priority 2017, published 2020).

For assay [1], the system named is Abeta 1-42 produced and secreted by SKNBE2 cells expressing hAPP695. Kind of assay: Cellular αLisa assay in SKNBE2 cells, Abeta 1-42. As to conditions: SKNBE2 cells expressing hAPP695, 18 hours incubation; for IC50: Homo sapiens, SKNBE2, 18 h, read-out: CELLULAR αLISA ASSAY IN SKNBE2 CELLS ABETA 42 PIC50 (converted). Type of assay: cell-based, human. The method, then: (§1) In two αLisa assays the levels of Abeta total and Abeta 1-42 produced and secreted into the medium of human neuroblastoma SKNBE2 cells are quantified. The assay is based on the human neuroblastoma SKNBE2 expressing the wild type Amyloid Precursor Protein (hAPP695). The compounds are diluted and added to these cells, incubated for 18 hours and then measurements of Abeta 1-42 and Abeta total are taken. Abeta total and Abeta 1-42 are measured by sandwich αLisa. αLisa is a sandwich assay using biotinylated antibody AbN/25 attached to streptavidin coated beads and antibody Ab4G8 or cAb42/26 conjugated acceptor beads for the detection of Abeta total and Abeta 1-42 respectively. In the presence of Abeta total or Abeta 1-42, the beads come into close proximity. The excitation of the donor beads provokes the release of singlet oxygen molecules that trigger a cascade of energy transfer in the acceptor beads, resulting in light emission. Light emission is measured after 1 hour incubation (excitation at […] and emission at 615 nm).
(§2) A best-fit curve is fitted by a minimum sum of squares method to the plot of % Controlmin versus compound concentration. From this an IC50 value (inhibitory concentration causing 50% inhibition of activity) can be obtained. • LC=Median of the low control values=Low control: cells preincubated without compound, without biotinylated Ab in the αLisa • HC=Median of the High control values=High Control: cells preincubated without compound
(§3) % Effect=100−[(sample−LC)/(HC−LC)*100]
(§4) % Control=(sample/HC)*100
(§5) % Controlmin=(sample−LC)/(HC−LC)*100

The target of a further assay is T1, BACE1 (Homo sapiens, UniProt P56817).
T1 construct: recombinant BACE1 protein in a final concentration of 0.04 μg/ml
T1 sequence (P56817 46-501): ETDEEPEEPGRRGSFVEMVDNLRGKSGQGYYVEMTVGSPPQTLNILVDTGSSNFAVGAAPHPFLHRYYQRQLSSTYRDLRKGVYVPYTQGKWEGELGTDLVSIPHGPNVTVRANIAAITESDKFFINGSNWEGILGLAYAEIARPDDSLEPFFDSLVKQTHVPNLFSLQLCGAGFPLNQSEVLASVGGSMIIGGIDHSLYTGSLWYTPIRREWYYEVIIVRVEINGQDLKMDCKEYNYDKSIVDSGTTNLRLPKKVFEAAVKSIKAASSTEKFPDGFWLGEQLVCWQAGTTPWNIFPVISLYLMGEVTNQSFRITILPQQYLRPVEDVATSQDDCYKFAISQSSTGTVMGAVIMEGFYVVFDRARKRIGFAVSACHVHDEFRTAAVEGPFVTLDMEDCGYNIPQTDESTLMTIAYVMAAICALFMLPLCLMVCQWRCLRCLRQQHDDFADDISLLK
The experiment in a line: BACE1 biochemical FRET based assay. As to conditions: recombinant BACE1 0.04 μg/ml, 20 μM substrate, 450 min, pH 5.0; for IC50: read-out: BIOCHEMICAL FRET BASED ASSAY pIC50 (converted).
Excerpt: (§6) This assay is a Fluorescence Resonance Energy Transfer Assay (FRET) based assay. The substrate for this assay is an APP derived 13 amino acids peptide that contains the ‘Swedish’ Lys-Met/Asn-Leu mutation of the amyloid precursor protein (APP) beta-secretase cleavage site. This substrate also contains two fluorophores: (7-methoxycoumarin-4-yl) acetic acid (Mca) is a fluorescent donor with excitation wavelength at 320 nm and emission at 405 nm and 2,4-Dinitrophenyl (Dnp) is a proprietary quencher acceptor. […] Upon cleavage by BACE1, the fluorophore Mca is separated from the quenching group Dnp, restoring the full fluorescence yield of the donor. The increase in fluorescence is linearly related to the rate of proteolysis.
Briefly in a 384-well format recombinant BACE1 protein in a final concentration of 0.04 μg/ml is incubated for 450 minutes at room temperature with 20 μM substrate in incubation buffer (50 mM Citrate buffer pH 5.0, 0.05% PEG) in the presence of compound or DMSO. Next the amount of proteolysis is directly measured by fluorescence measurement (excitation at 320 nm and emission at 405 nm) at different incubation times (0, 30, 60, 90, 120 and 450 min). For every experiment a time curve (every 30 min between 0 min and 120 min) is used to determine the time where we find the lowest basal signal of the high control. The signal at this time (Tx) is used to subtract from the signal at 450 min. Results are expressed in RFU, as difference between T450 and Tx.
(§7) A best-fit curve is fitted by a minimum sum of squares method to the plot of % Controlmin versus compound concentration. From this an IC50 value (inhibitory concentration causing 50% inhibition of activity) can be obtained. • LC=Median of the low control values=Low control: Reaction without enzyme • HC=Median of the High control values=High Control: Reaction with enzyme
as §3, §4, §5

Assay [2] concerns Abeta total produced and secreted by SKNBE2 cells expressing hAPP695. Kind of assay: Cellular αLisa assay in SKNBE2 cells, Abeta total. The settings on record: SKNBE2 cells expressing hAPP695, 18 hours incubation; for IC50: Homo sapiens, SKNBE2, 18 h, read-out: CELLULAR αLISA ASSAY IN SKNBE2 CELLS ABETA TOTAL pIC50 (converted). Type of assay: cell-based, human. Here is the method:
as §1, §2, §3, §4, §5

The target in the next assay is T2, BACE2 (Homo sapiens, UniProt Q9Y5Z0).
T2 construct: recombinant BACE2 protein in a final concentration of 0.4 μg/ml
T2 sequence (Q9Y5Z0 63-518): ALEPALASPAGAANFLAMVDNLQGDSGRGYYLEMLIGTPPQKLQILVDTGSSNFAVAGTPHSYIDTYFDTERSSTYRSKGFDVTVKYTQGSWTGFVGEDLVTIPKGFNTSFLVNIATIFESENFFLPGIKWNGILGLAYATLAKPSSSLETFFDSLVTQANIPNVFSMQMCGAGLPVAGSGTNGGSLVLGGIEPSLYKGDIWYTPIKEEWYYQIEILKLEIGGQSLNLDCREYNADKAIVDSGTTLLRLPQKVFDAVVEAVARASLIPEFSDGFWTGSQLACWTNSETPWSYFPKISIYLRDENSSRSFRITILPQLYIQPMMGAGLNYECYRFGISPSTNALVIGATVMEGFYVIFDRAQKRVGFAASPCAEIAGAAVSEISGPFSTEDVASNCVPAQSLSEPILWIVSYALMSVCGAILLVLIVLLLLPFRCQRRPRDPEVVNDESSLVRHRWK
The experiment in a line: BACE2 biochemical FRET based assay. The settings on record: recombinant BACE2 0.4 μg/ml, 10 μM substrate, 450 min, pH 5.0; for IC50: read-out: BIOCHEMICAL FRET BASED ASSAY pIC50 (converted).
Excerpt: as §6, with “assay” for “assay is an APP derived 13 amino acids peptide that”, “the beta-secretase,” for “BACE1,”
Briefly in a 384-well format recombinant BACE2 protein in a final concentration of 0.4 μg/ml is incubated for 450 minutes at room temperature with 10 μM substrate in incubation buffer (50 mM Citrate buffer pH 5.0, 0.05% PEG, no DMSO) in the absence or presence of compound. Next the amount of proteolysis is directly measured by fluorescence measurement at T=0 and T=450 (excitation at 320 nm and emission at 405 nm). Results are expressed in RFU (Relative Fluorescence Units), as difference between T450 and TO.
as §7, §3, §4, §5

Turning to `COc1ncc(-c2cnccc2C)c2c1C[C@]1(c3cc(-c4cncnc4)ccc3F)N=C(N)SC[C@@H]1C2` (mixture of isomers) [Compound 39], the “CELLULAR αLISA ASSAY IN SKNBE2 CELLS ABETA 42 PIC50” value in assay [1] is on record as 8.78. Further, the entries for the “BIOCHEMICAL FRET BASED ASSAY pIC50” value on BACE1 and on BACE2 were 8.3 and 5.78, respectively. Moreover, the “CELLULAR αLISA ASSAY IN SKNBE2 CELLS ABETA TOTAL pIC50” value in assay [2] is 8.71.
Turning to `COc1nccc2c1C[C@]1(c3ccccc3)N=C(N)SC[C@@H]1C2` (racemic) [Compound 1], the IC50 in assay [1] was 69.2 nM; on BACE1 it was 398 nM; in assay [2] it was 74.1 nM; on BACE2 it was 468 nM.
The matching figures for `COc1nccc2c1C[C@]1(c3ccccc3F)N=C(N)SC[C@@H]1C2` (racemic) [Compound 2]: 53.7 nM, 158 nM, 46.8 nM and 174 nM.
In the same order, the values of `NC1=N[C@@]2(c3ccccc3F)Cc3c(cc[nH]c3=O)C[C@H]2CS1` (racemic) [Compound 3] are 4070 nM, 8710 nM, 4680 nM and 9550 nM.
In the case of `COc1nccc2c1CC1(c3cc(O)ccc3F)N=C(N)SCC1C2` (racemic) [Compound 5], the IC50 was 26.3 nM in assay [1], 162 nM on BACE1, 32.4 nM in assay [2] and 63.1 nM on BACE2.
In the same order, the values of `COc1ncc(Br)c2c1C[C@]1(c3ccccc3F)N=C(N)SC[C@@H]1C2` (racemic) [Compound 16] are 138 nM, 55 nM, 138 nM and 77.6 nM.
For the compound `COc1ncc(Br)c2c1CC1(c3ccc(F)cc3F)N=C(N)SCC1C2` (racemic) [Compound 17], the IC50 in assay [1] was 132 nM; at BACE1, 30.9 nM; in assay [2] it was 145 nM; at BACE2 it was 67.6 nM.
The matching figures for `COc1ncc(C2CC2)c2c1C[C@]1(c3ccccc3F)N=C(N)SC[C@@H]1C2` (racemic) [Compound 20]: 23.4 nM, 24.5 nM, 23.4 nM and 14.1 nM.
In the same order, the values of `CCOc1ncc(C2CC2)c2c1CC1(c3ccc(F)cc3F)N=C(N)SCC1C2` (racemic) [Compound 21] are 355 nM, 135 nM, 302 nM and 97.7 nM.
The matching figures for `COc1ncc(C#N)c2c1CC1(c3ccc(F)cc3F)N=C(N)SCC1C2` (racemic) [Compound 23]: 26.3 nM, 75.9 nM, 29.5 nM and 155 nM.
On to `CCOC(=O)c1cnc(OC)c2c1C[C@H]1CSC(N)=N[C@@]1(c1ccc(F)cc1F)C2` (racemic) [Compound 24], for which the IC50 in assay [1] was 6.92 nM; at BACE1, 13.8 nM; in assay [2] it was 6.61 nM; on BACE2 it was 12.3 nM.
For the compound `COc1ncc(-c2cccnc2)c2c1C[C@]1(c3ccc(F)cc3F)N=C(N)SC[C@@H]1C2` (racemic) [Compound 25], the IC50 was 1.7 nM in assay [1], 5.89 nM at BACE1, 1.91 nM in assay [2] and 12 nM on BACE2.
In the same order, the values of `COc1ncc(-c2ccn[nH]2)c2c1C[C@]1(c3ccc(F)cc3F)N=C(N)SC[C@@H]1C2` (racemic) [Compound 29] are 13.5 nM, 35.5 nM, 12.6 nM and 35.5 nM.
On to `Cn1ccc2c(c1=O)C[C@]1(c3ccccc3F)N=C(N)SC[C@@H]1C2` (racemic) [Compound 34], for which the IC50 in assay [1] was 1410 nM; at BACE1 it was 6030 nM; in assay [2], 1510 nM; on BACE2, 6030 nM.
With `CCOc1nccc2c1CC1(c3ccc(F)cc3F)N=C(N)SCC1C2` (single isomer, unassigned) [Compound 194], the IC50 is greater than 8910 nM in assay [1], greater than 10000 nM on BACE1, 6920 nM in assay [2] and greater than 10000 nM at BACE2.
`CCOc1nccc2c1CC1(c3ccc(F)cc3F)N=C(N)SCC1C2` (single isomer, unassigned) [Compound 195]: the “CELLULAR αLISA ASSAY IN SKNBE2 CELLS ABETA 42 PIC50” value in assay [1] was determined as 7.09. Moreover, the results for the “BIOCHEMICAL FRET BASED ASSAY pIC50” value on BACE1 and at BACE2 were 6.9 and 6.85, respectively. For the same compound, the “CELLULAR αLISA ASSAY IN SKNBE2 CELLS ABETA TOTAL pIC50” value in assay [2] came out at 7.09.
For `COc1ncc(-c2cnccc2C)c2c1CC1(c3ccc(Cl)cc3F)N=C(N)SCC1C2` (single isomer, unassigned) [Compound 200], the “CELLULAR αLISA ASSAY IN SKNBE2 CELLS ABETA 42 PIC50” value in assay [1] came out at 8.09. Also, the IC50 is 17.8 nM at BACE1 and 437 nM at BACE2. In addition, the “CELLULAR αLISA ASSAY IN SKNBE2 CELLS ABETA TOTAL pIC50” value in assay [2] is given as 8.05.
For `COc1ncc(-c2cnccc2C)c2c1CC1(c3ccc(Cl)cc3F)N=C(N)SCC1C2` (single isomer, unassigned) [Compound 201], the “CELLULAR αLISA ASSAY IN SKNBE2 CELLS ABETA 42 PIC50” value in assay [1] was 5.64. The IC50 at BACE1 is 6460 nM; at BACE2, greater than 10000 nM. Further, the “CELLULAR αLISA ASSAY IN SKNBE2 CELLS ABETA TOTAL pIC50” value in assay [2] is given as 5.69.
As for `COc1nccc2c1C[C@]1(c3ccc(F)cc3F)N=C(N)SC[C@@H]1C2` [Compound 35], the IC50 in assay [1] was 13.8 nM; at BACE1 it was 34.7 nM; in assay [2], 12 nM; on BACE2, 44.7 nM.
